Results on 43 molecules are retold here after a melting point compilation (Tetko et al.).

The molecule `O=C(Cl)c1cnc2ccccc2n1` had a melting point of 100 °C.
Under `Cc1ccc(CCc2ccc(C)cc2)cc1` stands 85 °C; under `CC(=O)N[C@@H](Cc1ccccc1)C(=O)N[C@@H](Cc1cc(I)c(O)c(I)c1)C(=O)O`, 219 to 221 °C.
On to `CC1(c2ccccc2)CC(C(=NOCC(O)CN2CCN(c3ccccc3)CC2)c2cc3ccccc3o2)C1` (stereo not drawn), for which the melting point was in the range of 96 to 97 °C.
On to `O=C1C=C(NCCc2ccccc2)C(=O)c2ccccc21`, for which the melting point is 141 °C.
`FC(F)(F)c1ccc(-c2nc(CCl)no2)cc1` came in with a melting point of 48 to 50 °C.
Under `Cc1ccc(C2(c3ccc(C)o3)C(=O)Nc3ccccc32)o1` stands 216 °C.
Turning to `O=C1CCN2C(=O)c3ccccc3CC2C1` (stereo not drawn), the melting point was found to be 126 °C.
The result for `COC(=O)C1=C(C)NC(=O)NC1c1ccc2c(c1)OCO2` (stereo not drawn) reads 239 to 241 °C; that for `Cc1nc(-c2cccc(N=C=O)c2)no1`, 72 to 74 °C.
As to `BrC(Br)c1ccccc1C(Br)Br`, the melting point was 116 °C.
On to `CCCCCCCCCCCCC(C)CC` (stereo not drawn), for which the melting point was -22 °C.
For the molecule `Nc1cccc2c1C(=O)c1cccc(N)c1C2=O`, the melting point worked out at 319 °C.
`N#CC(C#N)=Cc1ccc(Cl)cc1` came in with a melting point of 91 °C.
In turn, `O=C(CBr)C(c1ccccc1)c1ccccc1` registered a melting point of 64 to 66 °C.
Under `O=C=Nc1cccc(Cl)c1` stands -4 °C; under `CN(C)C(C)(C)C`, -90 °C.
In turn, `CCCCCCCCCCCCCCCCCC1CCCCC1` had a melting point of 38 °C.
In turn, `COC(=O)c1ccccc1-n1c(SC)nc2ccccc2c1=O` came in with a melting point of 178 to 180 °C.
With `N#C/C(=C\c1ccc(Cl)cc1)c1nc(-c2cccc3ccccc23)cs1`, the melting point stood at 130 °C.
The molecule `Nc1ccc(Oc2ccccc2)nc1` yielded a melting point of 71 to 72 °C.
The molecule `CN1CCc2c(c3ccccc3n2Cc2ccccc2)C1` yielded a melting point of 95 °C.
As to `Cc1onc(-c2c(Cl)cccc2Cl)c1CCl`, the melting point is 61 to 63 °C.
The result for `Nc1ccc2oc3c(c2c1)CCCC3` reads 73 to 75 °C; that for `N#Cc1ccc(CC(=O)O)cc1`, 151 °C.
For the molecule `CC12CC(=O)C3C(CCC4=CC(=O)CCC43C)C1CCC2=O` (stereo not drawn), the melting point stood at 222 °C.
Under `COC(=O)c1cc2ccccc2cn1` stands 88 to 89 °C; under `CN(C)c1cccc2c(S(=O)(=O)F)cccc12`, 52 °C.
Take `COc1cc(C2OCC3C(c4ccc(OC(C)=O)c(OC)c4)OCC23)ccc1OC(C)=O` (stereo not drawn): the melting point is 166 °C.
On to `CN1CCC(=O)NC1=O`, for which the melting point came out at 171 °C.
Turning to `COC(=O)CC(=O)OC(C)(C)C`, the melting point was -10 °C.
`CCCC(CC(OCC)OCC)OCC` (stereo not drawn): the melting point was -100 °C.
In turn, `CC(=O)c1ccccc1NC=O` registered a melting point of 65 to 68 °C.
`O=C(NCN(CNC(=O)c1ccccc1)N(CNC(=O)c1ccccc1)CNC(=O)c1ccccc1)c1ccccc1` gave a melting point of 99 to 101 °C.
In the case of `COc1ccc(/C=c2\sc3nc4ccccc4n3c2=O)cc1OC`, the melting point is 220 to 222 °C.
The molecule `O=C(Nc1ccc(I)cc1)C(C(F)(F)F)C(F)(F)F` returned a melting point of 235 to 237 °C.
`COc1ccc(C2Nn3c(nnc3-c3ccccc3)S2)cc1` (stereo not drawn) showed a melting point of 160 °C.
Regarding `N#CCS(=O)(=O)c1cccs1`, the melting point was 84 °C.
For `O=C1OC(c2ccccc2)=NC1=Cc1ccc(-c2ccccc2Br)o1`, the melting point was in the range of 159 to 160 °C.
Turning to `OCc1ncoc1-c1ccccc1`, the melting point was in the range of 95 to 97 °C.
`O=C1CCC(c2ccc(NC(=O)CCl)cc2)=NN1`: the melting point lay within 220 to 223 °C.
The result for `CCCOCC(C)OCC(C)O` (stereo not drawn) reads 7.08 °C.
The result for `NC(=S)c1cccnc1` reads 185 to 190 °C.

As usually defined, the melting point is the temperature, or range, at which the solid turns liquid.
